Data published in patent US20230146795A1, “ENHANCEMENT OF ANTI-TUMOR ACTIVITY OF SHP2 INHIBITOR PYRIMIDINONE IN COMBINATION WITH NOVEL CANCER MEDICINES IN CANCERS” (TAIHO PHARMACEUTICAL CO., LTD., priority 2020, published 2023).

Columns and labels:
Assay type in all cases: cell-based
[1] = system: RMG-I; assay: Anti-proliferation assay (CellTiter-Glo 2.0), combination index, RMG-I; details: molar ratio 1:81
Protocol: (§1) Cell lines were obtained from ATCC or Health Science Research Resources Bank.
(§2) 384 well culture plate (781086, Greiner Bio-One International) was used for cell survival rate measurement assay. Each cell lines were collected by ordinary method, then suspended in indicated medium containing 10% fetal bovine serum in table 3. The number of cells seeded per well was set to 500 cells/20 μL. After incubation at 37° C. for 24 hours under 5% CO2, Compound 1 and additional compound having an antitumor effect or a vehicle (DMSO) was added to each well by using D300e Digital Dispenser (Tecan). The concentration of Compound 1 was set to 10 concentrations. The concentration of each anti-cancer reagents set to 8 concentrations including 0 nM. After adding the medicine to the cells, the cells were further incubated at 37° C. for 3 days under 5% CO2. Cell survival rates were calculated by adding 20 μL of CellTiter-Glo(registered trademark) 2. 0 (Promega) solution to each well, incubating the cells at room temperature for 10 minutes, and then measuring the chemiluminescence intensity of each well using a plate reader (ARVO).
(§3) A combination index (CI) value at each combined concentration of the medicines was determined.

[2] = system: MV-4-11; assay: Anti-proliferation assay (CellTiter-Glo 2.0), combination index, MV-4-11
Protocol: as §1, §2, §3

[3] = system: NCI-H358; assay: Anti-proliferation assay (CellTiter-Glo 2.0), combination index, NCI-H358
Protocol: as §1
(§4) Each cell lines were collected by ordinary method, then suspended in indicated medium containing 10% fetal bovine serum in table 3. The number of cells seeded per well was set to 500 cells/20 μL. […] The concentration of each anti-cancer reagents set to 8 concentrations including 0 nM. After adding the medicine to the cells, the cells were further incubated at 37° C. for 3 days under 5% CO2. Cell survival rates were calculated by adding 20 μL of CellTiter-Glo(registered trademark) 2. 0 (Promega) solution to each well, incubating the cells at room temperature for 10 minutes, and then measuring the chemiluminescence intensity of each well using a plate reader (ARVO).
as §3

[4] = system: RT4; assay: Anti-proliferation assay (CellTiter-Glo 2.0), combination index, RT4
Protocol: as §1, §4, §3

[5] = system: MKN45; assay: Anti-proliferation assay (CellTiter-Glo 2.0), combination index, MKN45
Protocol: as §1, §4, §3

[6] = Compound 1 13.7 nmol/L + Palbociclib 1110 nmol/L
[7] = Compound 1 41.2 nmol/L + Palbociclib 3330 nmol/L
[8] = Compound 1 123 nmol/L + Palbociclib 10000 nmol/L
[9] = Compound 1 1.52 nmol/L + Palbociclib 123 nmol/L, molar ratio 1:81
[10] = Compound 1 13.7 nmol/L + Palbociclib 1110 nmol/L, molar ratio 1:81
[11] = Compound 1 41.2 nmol/L + Palbociclib 3330 nmol/L, molar ratio 1:81
[12] = Compound 1 123 nmol/L + Palbociclib 10000 nmol/L, molar ratio 1:81
[13] = Compound 1 41.2 nmol/L + Palbociclib 1110 nmol/L, molar ratio 1:27
[14] = Compound 1 123 nmol/L + Palbociclib 3330 nmol/L, molar ratio 1:27
[15] = Compound 1 370 nmol/L + Palbociclib 10000 nmol/L, molar ratio 1:27
[16] = Compound 1 4.57 + combination drug 370 nmol/L (1:81)
[17] = Compound 1 13.7 + combination drug 1110 nmol/L (1:81)
[18] = Compound 1 41.2 + combination drug 3330 nmol/L (1:81)
[19] = Compound 1 13.7 + combination drug 13.7 nmol/L (1:1)
[20] = Compound 1 41.2 + combination drug 41.2 nmol/L (1:1)
[21] = Compound 1 123 + combination drug 123 nmol/L (1:1)
[22] = Compound 1 41.2 + combination drug 370 nmol/L (1:9)
[23] = Compound 1 123 + combination drug 1110 nmol/L (1:9)
[24] = Compound 1 370 + combination drug 3330 nmol/L (1:9)
[25] = Compound 1 123 + combination drug 10000 nmol/L (1:81)
[26] = Compound 1 4.57 + combination drug 123 nmol/L (1:27)
[27] = Compound 1 13.7 + combination drug 370 nmol/L (1:27)
[28] = Compound 1 41.2 + combination drug 1110 nmol/L (1:27)
[29] = Compound 1 123 + combination drug 3330 nmol/L (1:27)
[30] = Compound 1 370 + combination drug 10000 nmol/L (1:27)
[31] = Compound 1 41.2 + combination drug 13.7 nmol/L (1:0.3)
[32] = Compound 1 370 + combination drug 123 nmol/L (1:0.3)
[33] = Compound 1 1110 + combination drug 370 nmol/L (1:0.3)
[34] = Compound 1 3330 + combination drug 1110 nmol/L (1:0.3)

`CC(=O)c1c(C)c2cnc(Nc3ccc(N4CCNCC4)cn3)nc2n(C2CCCC2)c1=O` [Palbociclib] showed a CI [1, 6] of 0.411, a Fa [1, 6] of 0.3192 and a CI [1, 7] of 0.271. It also gave a Fa [1, 7] of 0.4189, a CI [1, 8] of 0.225 and a Fa [1, 8] of 0.5120. The CI [2, 9] was 0.827, the Fa [2, 9] was 0.1698 and the CI [2, 10] was 0.520. For the same compound, the Fa [2, 10] was 0.6523, the CI [2, 11] was 0.699 and the Fa [2, 11] was 0.7944. For the same compound, the CI [2, 12] was 0.565, the Fa [2, 12] was 0.9297 and the Description ([2]; combination effect, Compound 1 + Palbociclib, molar ratio 1:81) was “Synergy (0.3-0.7)”. For the same compound, the CI [3, 13] was 0.774, the Fa [3, 13] was 0.1141 and the CI [3, 14] was 0.695. For the same compound, the Fa [3, 14] was 0.2564, the CI [3, 15] was 0.833 and the Fa [3, 15] was 0.4277.

`CCN(CC)CCNC(=O)c1c(C)[nH]c(/C=C2\C(=O)Nc3ccc(F)cc32)c1C` [Sunitinib] gave a CI [4, 16] of 0.687, a Fa [4, 16] of 0.1808 and a CI [4, 17] of 0.392. It also gave a Fa [4, 17] of 0.4883, a CI [4, 18] of 0.624 and a Fa [4, 18] of 0.6270. The “Description (combinatory effect by CI)” value ([4]; Compound 1:combination drug molar ratio 1:81) was “Synergy (0.3-0.7)”, the CI [2, 19] was 0.262 and the Fa [2, 19] was 0.9463. It also gave a CI [2, 20] of 0.327, a Fa [2, 20] of 0.9651 and a CI [2, 21] of 0.902. The Fa [2, 21] was 0.9666, the CI [3, 22] was 0.502 and the Fa [3, 22] was 0.4562. For the same compound, the CI [3, 23] was 0.747, the Fa [3, 23] was 0.7002 and the CI [3, 24] was 0.612. The Fa [3, 24] was 0.9541, the “Description (combinatory effect by CI)” value ([3]; Compound 1:combination drug molar ratio 1:9) was “Synergy (0.3-0.7)” and the CI [5, 25] was 0.818. The Fa [5, 25] was 0.8052.

Work on `CCc1cc2c(cc1N1CCC(N3CCOCC3)CC1)C(C)(C)c1[nH]c3cc(C#N)ccc3c1C2=O` [Alectinib] yielded a CI [2, 26] of 0.829, a Fa [2, 26] of 0.5762 and a CI [2, 27] of 0.484. The Fa [2, 27] was 0.8852, the CI [2, 28] was 0.609 and the Fa [2, 28] was 0.9534. The CI [2, 29] was 0.187, the Fa [2, 29] was 0.9967 and the CI [2, 30] was 0.631. It also gave a Fa [2, 30] of 0.9962, a CI [5, 28] of 0.905 and a Fa [5, 28] of 0.4310. The CI [5, 30] was 0.542, the Fa [5, 30] was 0.9801 and the “Description (combinatory effect by CI)” value ([5]; Compound 1:combination drug molar ratio 1:27) was “Synergy (0.3-0.7)”.

Work on `CNC(=O)c1cc(Oc2ccc(NC(=O)Nc3ccc(Cl)c(C(F)(F)F)c3)cc2)ccn1` [Sorafenib] yielded a CI [2, 31] of 0.116, a Fa [2, 31] of 0.9439 and a Fa ([2]; Compound 1 123 + combination drug 41.2 nmol/L (1:0.3)) of 0.9578. For the same compound, the CI [2, 32] was 0.301, the Fa [2, 32] was 0.9643 and the CI [2, 33] was 0.759. It also gave a Fa [2, 33] of 0.9665, a CI [2, 34] of 0.865 and a Fa [2, 34] of 0.9766.
